Test results: patent publication US8829007B2 (priority 2009, dated 2014)

Tested on: influenza A virus (A/PR/8/34)
Test: microbe, parasite or virus in culture
Format: cell-based
Conditions: Influenza A virus, PR/8, MDCK, MDCK cells infected with A/PR/8/34, cell protection (CPE); read-out: IC50 (mean all)

Structure (SMILES)	IC50
CC(C)(C)CC(=O)N1CCC[C@@H](CNc2nc(-c3c[nH]c4ncc(Cl)cc34)ncc2F)C1 [Compound 42, (S)-1-(3-((2-(5-chloro-1H-pyrrolo[2,3-b]pyridin-3-yl)-5-fluoropyrimidin-4-ylamino)methyl)piperidin-1-yl)-3,3-dimethylbutan-1-one]	> 20 µM
C[N+](C)(C)CC(=O)N1CCC[C@@H](CNc2nc(-c3c[nH]c4ncc(Cl)cc34)ncc2F)C1 [Compound 43, (S)-2-(3-((2-(5-chloro-1H-pyrrolo[2,3-b]pyridin-3-yl)-5-fluoropyrimidin-4-ylamino)methyl)piperidin-1-yl)-N,N,N-trimethyl-2-oxoethanaminium]	> 20 µM
CN(C)CC(=O)N1CCC[C@@H](CNc2nc(-c3c[nH]c4ncc(Cl)cc34)ncc2F)C1 [Compound 46, (S)-1-(3-((2-(5-chloro-1H-pyrrolo[2,3-b]pyridin-3-yl)-5-fluoropyrimidin-4-ylamino)methyl)piperidin-1-yl)-2-(dimethylamino)ethanone]	> 20 µM
O=C(Cn1cnnn1)N1CCC[C@@H](CNc2nc(-c3c[nH]c4ncc(Cl)cc34)ncc2F)C1 [Compound 48, (S)-1-(3-((2-(5-chloro-1H-pyrrolo[2,3-b]pyridin-3-yl)-5-fluoropyrimidin-4-ylamino)methyl)piperidin-1-yl)-2-(1H-tetrazol-1-yl)ethanone]	> 20 µM
O=C(Cn1ccnc1)N1CCC[C@@H](CNc2nc(-c3c[nH]c4ncc(Cl)cc34)ncc2F)C1 [Compound 50, (S)-1-(3-((2-(5-chloro-1H-pyrrolo[2,3-b]pyridin-3-yl)-5-fluoropyrimidin-4-ylamino)methyl)piperidin-1-yl)-2-(1H-imidazol-1-yl)ethanone]	> 20 µM
O=C(O)CCCC(=O)N1CCC[C@H](CNc2nc(-c3c[nH]c4ncc(Cl)cc34)ncc2F)C1 [Compound 53, (R)-5-(3-((2-(5-chloro-1H-pyrrolo[2,3-b]pyridin-3-yl)-5-fluoropyrimidin-4-ylamino)methyl)piperidin-1-yl)-5-oxopentanoic acid]	5 to 20 µM
O=C(O)COCC(=O)N1CCC[C@H](CNc2nc(-c3c[nH]c4ncc(Cl)cc34)ncc2F)C1 [Compound 54, (R)-2-(2-(3-((2-(5-chloro-1H-pyrrolo[2,3-b]pyridin-3-yl)-5-fluoropyrimidin-4-ylamino)methyl)piperidin-1-yl)-2-oxoethoxy)ethanoic acid]	5 to 20 µM
O=C(c1ccccc1F)N1CCC[C@H](CNc2nc(-c3c[nH]c4ncc(Cl)cc34)ncc2F)C1 [Compound 58, (R)-(3-((2-(5-chloro-1H-pyrrolo[2,3-b]pyridin-3-yl)-5-fluoropyrimidin-4-ylamino)methyl)piperidin-1-yl)(2-fluorophenyl)methanone]	< 5 µM
CC(=O)c1cccc(NC(=O)N2CCC[C@H](CNc3nc(-c4c[nH]c5ncc(Cl)cc45)ncc3F)C2)c1 [Compound 77, (R)-3-((2-(5-chloro-1H-pyrrolo[2,3-b]pyridin-3-yl)-5-fluoropyrimidin-4-ylamino)methyl)-N-(3-ethanoylphenyl)piperidine-1-carboxamide]	5 to 20 µM
O=C(Nc1cccc(C(F)(F)F)c1)N1CCC[C@H](CNc2nc(-c3c[nH]c4ncc(Cl)cc34)ncc2F)C1 [Compound 79, (R)-3-((2-(5-chloro-1H-pyrrolo[2,3-b]pyridin-3-yl)-5-fluoropyrimidin-4-ylamino)methyl)-N-(3-(trifluoromethyl)phenyl)piperidine-1-carboxamide]	5 to 20 µM
O=C(O)c1nccnc1C(=O)N1CCC[C@H](CNc2nc(-c3c[nH]c4ncc(Cl)cc34)ncc2F)C1 [Compound 82, (R)-3-(3-((2-(5-chloro-1H-pyrrolo[2,3-b]pyridin-3-yl)-5-fluoropyrimidin-4-ylamino)methyl)piperidine-1-carbonyl)pyrazine-2-carboxylic acid]	> 20 µM
O=C(O)[C@H]1C[C@H]1C(=O)N1CCC[C@H](CNc2nc(-c3c[nH]c4ncc(Cl)cc34)ncc2F)C1 [Compound 83, (1S,2R)-2-((R)-3-((2-(5-chloro-1H-pyrrolo[2,3-b]pyridin-3-yl)-5-fluoropyrimidin-4-ylamino)methyl)piperidine-1-carbonyl)cyclopropanecarboxylic acid]	> 20 µM
O=C(c1c(Cl)cccc1Cl)N1CCC[C@H](CNc2nc(-c3c[nH]c4ncc(Cl)cc34)ncc2F)C1 [Compound 96, (R)-(3-((2-(5-chloro-1H-pyrrolo[2,3-b]pyridin-3-yl)-5-fluoropyrimidin-4-ylamino)methyl)piperidin-1-yl)(2,6-dichlorophenyl)methanone]	5 to 20 µM
O=C(c1ccc2c(c1)OCO2)N1CCC[C@H](CNc2nc(-c3c[nH]c4ncc(Cl)cc34)ncc2F)C1 [Compound 103, (R)-benzo[d][1,3]dioxol-5-yl(3-((2-(5-chloro-1H-pyrrolo[2,3-b]pyridin-3-yl)-5-fluoropyrimidin-4-ylamino)methyl)piperidin-1-yl)methanone]	< 5 µM
CC(C)(C)OC(=O)N1CCC[C@H](CNc2nc(-c3c[nH]c4ncc(N)cc34)ncc2F)C1 [Compound 114, (R)-tert-butyl 3-((2-(5-amino-1H-pyrrolo[2,3-b]pyridin-3-yl)-5-fluoropyrimidin-4-ylamino)methyl)piperidine-1-carboxylate]	> 20 µM
N[C@@H]1CCCC[C@H]1Nc1nc(-c2c[nH]c3ncc(Cl)cc23)ncc1Cl [Compound 115, (1R,2R)—N1-(5-chloro-2-(5-chloro-1H-pyrrolo[2,3-b]pyridin-3-yl)pyrimidin-4-yl)cyclohexane-1,2-diamine]	> 20 µM
Cc1cnc(-c2c[nH]c3ncc(Cl)cc23)nc1NC1CCCCC1N (stereo not shown) [Compound 116, N1-(2-(5-chloro-1H-pyrrolo[2,3-b]pyridin-3-yl)-5-methylpyrimidin-4-yl)cyclohexane-1,2-diamine]	> 20 µM
CCOC(=O)CCNC(=O)N1CCC[C@H](CNc2nc(-c3c[nH]c4ncc(Cl)cc34)ncc2F)C1 [Compound 118, (R)-ethyl 3-(3-((2-(5-chloro-1H-pyrrolo[2,3-b]pyridin-3-yl)-5-fluoropyrimidin-4-ylamino)methyl)piperidine-1-carboxamido)propanoate]	5 to 20 µM
Cc1csc(NC(=O)N2CCC[C@H](CNc3nc(-c4c[nH]c5ncc(Cl)cc45)ncc3F)C2)c1 [Compound 130, (R)-3-((2-(5-chloro-1H-pyrrolo[2,3-b]pyridin-3-yl)-5-fluoropyrimidin-4-ylamino)methyl)-N-(4-methylthiophen-2-yl)piperidine-1-carboxamide]	< 5 µM
COC(CN1CCC[C@@H](CNc2nc(-c3c[nH]c4ncc(Cl)cc34)ncc2F)C1)OC [Compound 132, (S)-2-(5-chloro-1H-pyrrolo[2,3-b]pyridin-3-yl)-N-((1-(2,2-dimethoxyethyl)piperidin-3-yl)methyl)-5-fluoropyrimidin-4-amine]	> 20 µM
OCCN1CCC[C@@H](CNc2nc(-c3c[nH]c4ncc(Cl)cc34)ncc2F)C1 [Compound 133, (S)-2-(3-((2-(5-chloro-1H-pyrrolo[2,3-b]pyridin-3-yl)-5-fluoropyrimidin-4-ylamino)methyl)piperidin-1-yl)ethanol]	> 20 µM
Fc1cnc(-c2c[nH]c3ncc(Cl)cc23)nc1NC[C@@H]1CCCN(CC2CCCCC2)C1 [Compound 134, (S)-2-(5-chloro-1H-pyrrolo[2,3-b]pyridin-3-yl)-N-((1-(cyclohexylmethyl)piperidin-3-yl)methyl)-5-fluoropyrimidin-4-amine]	5 to 20 µM
C[C@H](CO)CN1CCCC(CNc2nc(-c3c[nH]c4ncc(Cl)cc34)ncc2F)C1 (stereo partly shown) [Compound 135]	> 20 µM
Cc1cccc(CN2CCC[C@@H](CNc3nc(-c4c[nH]c5ncc(Cl)cc45)ncc3F)C2)c1 [Compound 137, (S)-2-(5-chloro-1H-pyrrolo[2,3-b]pyridin-3-yl)-5-fluoro-N-((1-(3-methylbenzyl)piperidin-3-yl)methyl)pyrimidin-4-amine]	> 20 µM
Cc1ccccc1CN1CCC[C@@H](CNc2nc(-c3c[nH]c4ncc(Cl)cc34)ncc2F)C1 [Compound 139, (S)-2-(5-chloro-1H-pyrrolo[2,3-b]pyridin-3-yl)-5-fluoro-N-((1-(2-methylbenzyl)piperidin-3-yl)methyl)pyrimidin-4-amine]	> 20 µM
CC(C)(C)C(=O)CN1CCC[C@@H](CNc2nc(-c3c[nH]c4ncc(Cl)cc34)ncc2F)C1 [Compound 140, (S)-1-(3-((2-(5-chloro-1H-pyrrolo[2,3-b]pyridin-3-yl)-5-fluoropyrimidin-4-ylamino)methyl)piperidin-1-yl)-3,3-dimethylbutan-2-one]	> 20 µM

Same assay, conditions: Influenza A virus, PR/8, MDCK; read-out: IC50 (mean all)

Structure (SMILES)	IC50
COC(=O)c1ccc(OC(=O)N2CCC[C@H](CNc3nc(-c4c[nH]c5ncc(Cl)cc45)ncc3F)C2)cc1 [Compound 63, (R)-4-(methoxycarbonyl)phenyl 3-((2-(5-chloro-1H-pyrrolo[2,3-b]pyridin-3-yl)-5-fluoropyrimidin-4-ylamino)methyl)piperidine-1-carboxylate]	> 20 µM
Cc1ccc(OC(=O)N2CCC[C@H](CNc3nc(-c4c[nH]c5ncc(Cl)cc45)ncc3F)C2)cc1 [Compound 71, (R)-p-tolyl 3-((2-(5-chloro-1H-pyrrolo[2,3-b]pyridin-3-yl)-5-fluoropyrimidin-4-ylamino)methyl)piperidine-1-carboxylate]	5 to 20 µM
O=C(Oc1cccc(C(F)(F)F)c1)N1CCC[C@H](CNc2nc(-c3c[nH]c4ncc(Cl)cc34)ncc2F)C1 [Compound 72, (R)-3-(trifluoromethyl)phenyl 3-((2-(5-chloro-1H-pyrrolo[2,3-b]pyridin-3-yl)-5-fluoropyrimidin-4-ylamino)methyl)piperidine-1-carboxylate]	5 to 20 µM
O=C(Oc1ccc(F)cc1)N1CCC[C@H](CNc2nc(-c3c[nH]c4ncc(Cl)cc34)ncc2F)C1 [Compound 73, (R)-4-fluorophenyl 3-((2-(5-chloro-1H-pyrrolo[2,3-b]pyridin-3-yl)-5-fluoropyrimidin-4-ylamino)methyl)piperidine-1-carboxylate]	5 to 20 µM
COC(=O)/C=C/CN1CCC[C@@H](CNc2nc(-c3c[nH]c4ncc(Cl)cc34)ncc2F)C1 [Compound 138, (S,E)-methyl 4-(3-((2-(5-chloro-1H-pyrrolo[2,3-b]pyridin-3-yl)-5-fluoropyrimidin-4-ylamino)methyl)piperidin-1-yl)but-2-enoate]	> 20 µM
